The source of these data is US4268685A, “Salicylamide esters and related pharmaceutical composition” (Neopharmed S.p.A., priority 1979, dated 1981).

Data set [1] in a line: solubility of the product. In kind it is physicochemical.
The nature of data set [2]: hot plate test. The conditions noted are these: in vivo. The text has this: The pharmacological tests, as carried out with the compound of example 3, show: […]
(Thermal pain tests record how soon the animal reacts.)

For data set [3] the following is noted: in vivo.
Data set [4] can be described thus: plasma content (bioavailability) after administration. The conditions noted are these: in vivo.
The test system of data set [5] is prostaglandine synthetases. The data set is described as follows: forming of prostaglandine synthetases.
For data set [6] the following is noted: in vivo, po.

In the case of `COc1ccc2cc([C@H](C)C(=O)Oc3ccccc3C(N)=O)ccc2c1` [Example 1, Ester of salicylamide with 2-(6'-methoxy-2'-naphtyl)-propionic acid], the solubility in acetone result in data set [1] (acetone) is on record as “soluble”. Moreover, in data set [1] (alcohol), the solubility in alcohol entry was “little soluble”. Further, the solubility in benzene entry in data set [1] (benzene) is “little soluble”. For the same compound, the solubility in chloroform entry in data set [1] (chloroform) is “little soluble”. The solubility in pyridine result in data set [1] (pyridine) is given as “soluble”. Besides, the solubility in water result in data set [1] (water) is “insoluble”.

Turning to `CC(C)Cc1ccc(C(C)C(=O)Oc2ccccc2C(N)=O)cc1` (centres unmarked) [Example 3, Ester of salicylamide with 2-(4-isobutyl-phenyl)-propionic acid], in data set [2], the “activity at the hot plate test” value was “high activity”. Also, the “time for which plasma content remains essentially unchanged” value in data set [3] (po) is reported as “more than 7 hours”. In data set [4], the time extended action result is listed as “time extended action”. Besides, in data set [5], the “effect on the forming of prostaglandine synthetases” value (shortened to “effect on the forming”) is recorded as “enhanced”.

For `CC(C)Cc1ccc(C(C)C(=O)O)cc1` (centres unmarked) [Ibuprofen, 2-(4-isobutyl-phenyl)-propionic acid], in data set [6], the time to peak (Tmax) turned out to be 1 h. The “effect on the forming” value in data set [5] is “opposite behaviour”.

Regarding `NC(=O)c1ccccc1O` [salicylamide], the “presence of salicylamide in the plasma” value in data set [3] is on record as “not present in the plasma”.

Take `COc1ccc2c(c1)c(CC(=O)O)c(C)n2C(=O)c1ccc(Cl)cc1` [indomethacin]: the “effect on the forming” value in data set [5] was “opposite behaviour”.

Usually Tmax stands for the time from dosing to the highest level.
